How the values were obtained:
[1] = xn = mol fraction of the nth substance listed; conditions: 100 kPa, Liquid, x2 = 0; for viscosity: Cone and plate viscometry; for mass density: Vibrating tube method
[2] = Liquid; for viscosity: Cone and plate viscometry; for mass density: Vibrating tube method; for vapor or sublimation pressure: Ebulliometric method (Recirculating still)

CC(C)CO [2-methyl-1-propanol] + CCC(C)(C)O
[1]
Conditions	mass density [kg/m3]	viscosity [mPa·s]
293.15 K	801.75	4.315
303.15 K	794.16	3.089
313.15 K	786.27	2.261
323.15 K	778.28	1.701
333.15 K	769.74	1.29
343.15 K	760.83	–
353.15 K	751.67	–
363.15 K	741.9	–

CC(C)CO [2-methyl-1-propanol]
[2]
Conditions	mass density, 101 kPa [kg/m3]	mass density, 101.33 kPa [kg/m3]	viscosity, 101 kPa [mPa·s]
293.15 K	801.75	–	4.315
298.15 K	–	797.83	–
303.15 K	794.16	–	3.089
313.15 K	786.27	–	2.261
323.15 K	778.28	–	1.701
333.15 K	769.74	–	1.29
343.15 K	760.83	–	–
353.15 K	751.67	–	–
363.15 K	741.9	–	–

[2]
Conditions	vapor or sublimation pressure [kPa]
296.87 K	1.391
298.77 K	1.593
300.53 K	1.796
302.12 K	1.995
302.29 K	2
302.3 K	2
309.88 K	3.289
311.74 K	3.692
313.42 K	4.095
314.93 K	4.489
316.71 K	4.991
316.78 K	4.995
322.51 K	6.986
323.97 K	7.587
325.33 K	8.182
326.61 K	8.784
327.82 K	9.384
329.01 K	9.99
329.02 K	9.989
336.03 K	14.47
337.45 K	15.56
338.83 K	16.66
340.11 K	17.76
342.37 K	19.95
342.51 K	19.99
342.52 K	19.99
357.51 K	39.95
357.52 K	39.94
362.71 K	49.87
367.13 K	59.85
370.94 K	69.83
374.36 K	79.82
377.44 K	89.76
378.97 K	94.99

CCC(C)(C)O [2-methylbutan-2-ol]
[2]
Conditions	mass density, 101 kPa [kg/m3]	mass density, 101.33 kPa [kg/m3]	viscosity, 101 kPa [mPa·s]
293.15 K	808.77	–	4.596
298.15 K	–	804.28	–
303.15 K	799.74	–	2.983
313.15 K	790.35	–	2.078
323.15 K	780.66	–	1.494
333.15 K	770.4	–	1.093
343.15 K	759.8	–	–
353.15 K	749.13	–	–
363.15 K	738.77	–	–

[2]
Conditions	vapor or sublimation pressure [kPa]
296.61 K	1.992
296.7 K	1.99
297.94 K	2.19
299.29 K	2.388
300.33 K	2.589
301.46 K	2.791
302.54 K	2.999
310.7 K	4.984
311.35 K	5.181
311.98 K	5.383
312.29 K	5.49
313.76 K	5.991
315.13 K	6.487
316.4 K	6.987
317.37 K	7.387
322.63 K	9.978
322.92 K	10
323.15 K	10.18
323.49 K	10.38
323.84 K	10.58
324.14 K	10.78
324.51 K	10.97
325.37 K	11.57
326.73 K	12.38
327.62 K	12.97
327.81 K	13.17
329.05 K	13.97
330.38 K	14.96
336.11 K	19.94
336.26 K	19.99
337.58 K	21.45
338.97 K	22.94
340.32 K	24.44
341.57 K	25.93
341.59 K	25.92
342.39 K	26.94
348.11 K	34.91
351.17 K	39.89
351.33 K	39.95
353.93 K	44.88
356.46 K	49.88
361.02 K	59.92
372.63 K	93.14
373.16 K	94.89
373.29 K	95.01
373.6 K	96.54
374.05 K	98.01
374.53 K	99.81
374.93 K	101.04
376.03 K	104.99
377.33 K	109.95
378.63 K	115.02
379.87 K	120.01
381.05 K	124.96

— the NIST ThermoML archive (doi:10.1021/acs.jced.5b00537)
